Data set [1] relates to Caki1 human renal cell carcinoma cells. As to the kind of experiment: Caki1 renal cell carcinoma xenograft efficacy test.
Description: In an efficacy test using these three compounds, athymic nude mice were inoculated subcutaneously with a suspension of Caki1 human renal cell carcinoma cells into both rear flanks. When at least one tumor in a mouse reached 20-50 mm^3, treatment was commenced. […] As a positive control, one group was treated with 40 mg/kg Sunitinib, an approved drug for the treatment of renal cell carcinoma. Treatment was given for 4 weeks on a 5 day on/2 day off schedule. After treatment was completed, mice were monitored for an additional 4 weeks to determine how quickly tumor growth returned to normal.
For another data set, the system named is Bloodstream T. brucei. The data set is described as follows: T. brucei bloodstream form in vitro killing. Type of data set: cell-based, Trypanosoma brucei. As for the experimental part:
Preliminary T. brucei inactivation experiments were performed in vitro. The life cycle of T. brucei involves a “procyclic” developmental stage in a tsetse fly, and a “bloodstream” form in humans. All studies were performed with the bloodstream stage of the parasite, because it is the disease-causing developmental stage.
Suramin, a conventional anti-HAT drug, was used as a positive control.
Bloodstream T. brucei was seeded (3×10^3 cells/mL) in 24-well (500 uL of the media per well) plate. […] Control cultures received equal volumes of DMSO.

For data set [2], the system named is Af293 strain of A. fumigatus. The data set is described as follows: XTT viability assay. Format: cell-based, Aspergillus fumigatus. As to the method:
This strain was selected because it is one of the best characterized strains and was the strain used for sequencing the A. fumigatus genome. XTT viability assay is based on the reduction of the tetrazolium salt (XTT) in the presence of menadione as an electron-coupling agent. There is a relationship between the number of viable fungi and the amount of XTT reduction (16).
The same methods previously described in performing the XTT assay (17) were used. Af293 conidia were plated on Sabouraud BHI slants with chloramphenicol and gentamicin (Becton Dickinson, Md.), incubated for 7 to 10 days at room temperature, and harvested by washing the slant with 10 ml of 0.05% Tween 20 in normal saline (NS). The conidial suspension then was passed through a 100-μm filter, counted on a hemacytometer, and diluted to 2.0×10^6 CFU/ml. Conidia then were diluted 1:50 in MOPS (morpholinepropanesulfonic acid)-buffered RPMI (pH 7.0). A stock solution of Example 15 dissolved in DMSO was used. […] Following the addition of drug-containing medium to each well, the conidial suspension (100 μl) was added (t=0 h). Control wells contained conidia, medium, and vehicle without drug. Blank wells consisted of medium only without conidia. […] One hundred microliters of the supernatant was transferred to a new plate, and the optical density at 450 nm (OD450) was determined by using a Labsystems Multiskan Plus plate reader. […]

The subject of the next data set is C. albicans. As to the kind of experiment: microbe, parasite or virus in culture. As to conditions: Candida albicans. Type of data set: cell-based. An excerpt: Candida spp. strains: 20 Candida spp. clinical isolates and one laboratory control strain (C. albicans SC5314) was used in the study. In the collection were included:
5 C. albicans isolates, two wild type strain (SC5314 and ATCC 36082), one echinocandin resistant isolate (M205) (6), and two fluconazole resistant clinical isolates (3795 and 3184) (7).

The test system of data set [3] is human HT-29 colon adenocarcinoma xenografts.
Description: In this study, the antitumor effect and toxicity of the three carbazoles against HCT-8 and HT29 colon cancer tumors were compared with treatment beginning when the tumor size reached 150-200 mg (about 7 days after tumor transplantation).
Eight to twelve-week-old female athymic nude mice (nu/nu, body weight 22-25 g) were obtained from Harlan Sprague Dawley Inc. (Indianapolis, Ind.) and maintained at five mice/cage with water and food ad libitum according to an institutionally approved animal protocol.
Human ileocecal adenocarcinoma HCT-8 and colon adenocarcinoma HT-29 xenografts were used. The xenografts were initially established by injecting s.c 10^6 cultured cells and tumors were passed several generations by transplanting about 50 mg non-necrotic tumor (2-3 pieces) via a trocar from the passage tumors when the tumors reach to 1-1.5 g.
Treatment was initiated 7 days after tumor transplantation when the tumors reached 150-200 mg. The mice in the control group received the vehicle (0.2% hydroxypropylmethylcellulose) at 200 μl per 20 g mouse body weight (same as the treatment groups). Five mice were used for each experimental group with 10 tumors (1 tumor each in the left and right side flanks).
Two axes (mm) of tumor (L, longest axis; W, shortest axis) were measured with the aid of a Vernier caliper. Tumor weight (mg) was estimated using a formula: tumor weight=½ (L×W2). Tumor measurements were taken daily at the same time as drug treatment and 3-4 times a week of post therapy.
The kinetics of drug-induced toxicities (body weight loss, diarrhea, and lethality) were determined daily for the first 10 days after treatment and every two days thereafter.
Antitumor activity was assessed by maximum tumor growth inhibition (MTRI) which is the mean tumor weight of treated group (MTWTG) compared with untreated control group (MTWCG) at the same time point (MTRI=MTWTG−MTWCG)÷MTWCG×100%). The tumor doubling time (TDT) was defined as the mean time for the tumor to reach twice its initial weight. Tumor response was expressed as partial tumor response (PR) when tumor weight was reduced at least 50% of the initial tumor size and complete tumor response (CR) was defined as the inability to detect tumor upon palpation at the initial site of tumor appearance.
Another data set concerns A. terreus. The data set is described as follows: in vitro susceptibility CLSI M38A2, MIC. Conditions: Aspergillus terreus.
Data set [4] deals with clinical and laboratory fungal strains. The data set is described as follows: in vitro susceptibility, summaries over groups of fungal strains. Type of data set: cell-based, Aspergillus spp., yeast. An excerpt:
Aspergillus spp. […] Moreover, there were no MIC differences between susceptible and azole or echinocandin resistant strains (Table 1).
On average, yeast MICs were 8-fold lower than Aspergillus spp. MIC (Table 1). MICs obtained for Example 15 are compatible or better than MICs for conventional antifungal drugs.

We go through one compound from patent US9566265B2, “Carbazole compounds and therapeutic uses of the compounds” (Incuron, LLC, priority 2008, dated 2017).

≈ marks a conversion by molar mass, not a printed value. Like-named read-outs stand apart in the source and are kept apart here.

Excerpt for A. terreus: Eight Aspergillus spp. strains were used throughout the study. Six A. fumigatus, one A. flavus and one A. terreus also were used. The A. fumigatus group included two itraconazole-resistant strains (RIT13 and RIT5 strains) (1), one triazole cross-resistant strain (MUT10) (2, 3), one echinocandin cross-resistant strain (EMFRS678P) (4), and 2 wild type susceptible isolates (R21 and ATCC13073).

Take `CCN(CC)CCn1c2ccc3c(c2c2c4c(ccc21)C(=O)CC4)CCC3=O` [Example 15]: the weight loss in data set [1] (5 mg/kg oral, short-term) is given as 10-15%. In data set [1] (Day 24 (end of treatment), oral gavage 5 day on/2 day off, Example 7 30, Example 15 5, Example 13 25, Sunitinib 40 mg/kg), the “tumor growth inhibition compared to the vehicle control” value was found to be 50%. Besides, the “elimination of parasites” value in the data set on Bloodstream T. brucei (48 hrs, up to 200 nM Example 7, 20 nM Example 13, 3 nM Example 15) is reported as “completely eliminated T. brucei”. Moreover, the IC50 in the data set on Bloodstream T. brucei (Trypanosoma brucei, read-out: IC50 (concentration that killed 50% of the parasites), bloodstream stage, 48 hrs of culture) was roughly 0.5 nM; in data set [2] (Aspergillus fumigatus, XTT assay at 24 h), roughly 2500 nM. For the same compound, in data set [2] (visual inspection of the wells), the “concentration for complete suppression of fungal growth” value is “greater than 12.5 μM”. The MIC with C. albicans (read-out: MIC* (48 hs), strain 3184, CDR1 overexpression, Fluconazole- resistant) is 0.66 µM (≈ 0.247 µg/mL); in the data set with C. albicans (strain ATCC36082, WT, Susceptible, read-out: MIC* (24 hs)), 0.04 µM (≈ 0.015 µg/mL); in the data set with C. albicans (strain ATCC36082, WT, Susceptible, read-out: MIC* (48 hs)), 0.04 µM (≈ 0.015 µg/mL); in the data set with C. albicans (strain SC5314, WT, Susceptible, read-out: MIC* (24 hs)), 0.04 µM (≈ 0.015 µg/mL); in the data set on C. albicans (strain SC5314, WT, Susceptible, read-out: MIC* (48 hs)) it was 0.08 µM (≈ 0.03 µg/mL); in the data set with A. terreus (read-out: MIC* (24 hs)) it was 0.08 µM (≈ 0.03 µg/mL). The MIC was determined as 1.28 µM (≈ 0.479 µg/mL) with A. terreus (read-out: MIC* (48 hs)); 0.4 µM (≈ 0.15 µg/mL) in data set [4] (A. flavus and A. terreus strains, read-out: 24 hs MIC Geom. Means). The “delay of tumor growth (control double time 7.8 days)” value in data set [3] is recorded as 76%. Besides, the “inhibitory rate / tumor growth inhibition” value in data set [3] is 58%. The “Antitumor Activity MTGI (%)” value in data set [3] (p.o. at MTD, 5 days on/2 days off per week, Example 15 5, Example 7 30, Example 13 25 mg/kg/d) turned out to be 58.4 ± 6.4%. Also, the “Toxicity (%) lethality” value in data set [3] (same) turned out to be 40%. Moreover, the “CR (%)” value in data set [3] (same, complete tumor response) is on record as 0%. Besides, the “Toxicity (%) MWL” value in data set [3] (same, maximum weight loss of pretreatment body weight) was found to be 17.9 ± 6.8%. For the same compound, the “PR (%)” value in data set [3] (same, partial tumor response) is reported as 0%. In addition, in data set [3] (same, tumor doubling time), the “Antitumor Activity TDT” value came out at 13.1 ± 2.3 days. Moreover, the “yeast MICs lower than Aspergillus spp. MIC, on average” value in data set [4] came to 8 fold.
